The results in this text go back to paper PMC11032326, “A practical synthesis of nitrone-derived C5a-functionalized isofagomines as protein stabilizers to treat Gaucher disease” (Communications Chemistry, 2024).

Series [1] deals with T1, rh-GCase (Homo sapiens, UniProt P04062).
T1 sequence (P04062 40-536): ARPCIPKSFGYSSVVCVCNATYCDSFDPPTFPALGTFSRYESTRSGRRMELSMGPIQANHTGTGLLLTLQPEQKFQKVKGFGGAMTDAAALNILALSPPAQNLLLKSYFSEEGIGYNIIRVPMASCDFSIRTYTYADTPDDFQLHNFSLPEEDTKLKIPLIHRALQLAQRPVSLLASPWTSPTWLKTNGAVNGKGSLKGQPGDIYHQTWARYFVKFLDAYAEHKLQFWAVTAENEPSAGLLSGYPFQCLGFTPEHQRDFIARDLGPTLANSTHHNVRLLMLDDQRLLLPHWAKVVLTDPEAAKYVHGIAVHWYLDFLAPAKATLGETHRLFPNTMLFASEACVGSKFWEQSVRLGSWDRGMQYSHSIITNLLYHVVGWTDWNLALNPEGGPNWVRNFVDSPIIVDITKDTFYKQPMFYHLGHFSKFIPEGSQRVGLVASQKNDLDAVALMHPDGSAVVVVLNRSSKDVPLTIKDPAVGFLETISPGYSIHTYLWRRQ
Kind of series: rh-GCase inhibition study (in-situ screening and IC50 of resynthesized compounds). The settings on record: for IC50: resynthesized compounds, read-out: IC50 against rh-GCase. Type of series: biochemical.

Series [2] deals with β-glucosidase activity in p.Asn370Ser/p.Leu29Alafs*18 Gaucher fibroblasts (GM00372). Kind of series: Intact cell β-glucosidase activity study (chaperone activity) in Gaucher fibroblasts. The settings on record: compared to untreated cells (=1). The format is cell-based, human. As for the experimental part:
(§1) GM00372 cells were seeded into 96-well culture plates. […] The final concentration of DMSO was <0.5% which had no cytotoxicity or glucosidase inhibition. The cells were incubated for 5 days and the medium for DMSO-treated cells or compound-treated cells was renewed every 3 days. The enzyme activity assay was performed after removing the medium supplemented with compounds. Compounds were evaluated at all concentrations in triplicate. The monolayers were washed with Dulbecco’s PBS solution (Gibco pH 7.4). PBS (16 μL) and acetate buffer (0.2 M, 16 μL, pH 4.0) were added to each well. The reaction was started by the addition of 4-methylumbelliferyl β-D-glucoside (4 mM, 25 μL, Sigma) to each well, followed by incubation at 37 °C for 2 h. The reaction was stopped by lysing the cells with glycine buffer (0.2 M, 200 μL, pH 10.8). The fluorescence was also measured by the release of 4-methylumbelliferone with an excitation wavelength of 355 nm and an emission wavelength of 460 nm (SpectraMax M5, Molecular Devices). The fluorescence of untreated cells was compared with those treated with compounds. Among the resynthesized compounds, compound 16 was further subjected to the same experiments described above thoroughly at the concentration of 0–500 nM. Likewise, 4-methylumbelliferyl α-D-glucoside (4 mM, 25 μL, Sigma) was used to evaluate the cellular α-glucosidase activity in GM00372 cells treated with or without compound 16 (0–500 nM).

The target in series [3] is T1, rh-GCase. The series can be described thus: Thermal stability shift assay (fluorescence-based thermal denaturation). Type of series: binding. As to conditions: compared to Tm of rh-GCase without small molecule; for In-vitro rh-GCase stabilization ΔTm: 100 µM, pH 7.0; for ΔTm at 100 µM: pH 7, 100 µM, read-out: In-vitro rh-GCase stabilization ΔTm. As for the experimental part:
The stability of rh-GCase was assessed using a modified fluorescence thermal stability assay on a Rotor-Gene system in a neutral pH buffer (phosphate buffer, pH 7.0). […] A thermal gradient was applied to the plate at a rate of 1 °C/minute, during which time the fluorescence of SYPRO Orange was continuously monitored. The fluorescence intensity at each temperature was normalized to the maximum fluorescence after complete thermal denaturation.

The test system of series [4] is Gaucher p.Asn370Ser fibroblasts (GM00372). The series can be described thus: rh-GCase activity in Gaucher patient fibroblasts (co-administration), GM00372. The format is cell-based, human. As to conditions: rh-GCase 0.17 μM, 16 at 1 μM, 24 h. As for the experimental part:
(§2) Gaucher patient fibroblasts (GM00372 and GM00877) (2 × 10^4 cells) were seeded in 48-well culture plates and incubated overnight. […] After 24 h, the medium was refreshed without rh-GCase and SMPSs, then the cells were incubated for another 24 h. Cells were harvested by trypsinization and the cell pellets were washed twice with PBS and lysed with lysis buffer containing 0.1% Triton X-100, 50 mM Tris-HCl, and 150 mM NaCl. GCase activity assay was performed by mixing lysate (10 μl) and substrate (90 μL of 4 mM 4-methylumbelliferyl β-D-glucopyranoside) in 0.1 M NaOAc and incubating at 37 °C for 1 h. Reactions were terminated by adding 0.2 N glycine-NaOH, pH 10.7. The fluorescence was detected at excitation/emission wavelengths 355/460 nm.

Series [5] has as its system cellular α-glucosidase activity in GM00372 cells. The series can be described thus: Intact cell α-glucosidase activity study in Gaucher fibroblasts. Type of series: cell-based, human. The settings on record: 0–500 nM. As for the experimental part: as §1, with “Likewise, 4-methylumbelliferyl α-D-glucoside (4 mM, 25 μL, Sigma) was used to evaluate the cellular α-glucosidase activity in GM00372 cells treated with or without compound 16 (0–500 nM).” left out

The subject of series [6] is p.Leu444Pro Gaucher fibroblasts (GM00877). Kind of series: rh-GCase activity in Gaucher patient fibroblasts (co-administration), GM00877. Type of series: cell-based, human. The settings on record: rh-GCase 0.17 μM, 16 at 1 μM, 24 h. As for the experimental part:
as §2

Series [7] is described as follows: Fluorescence-based thermal shift assay of pegylated rh-GCases. Type of series: physicochemical. As to conditions: rh-GCase modified by MeO-PEG-NHS (Mw 5000 Da), molar ratio reagent to enzyme. An excerpt: Supplementary Figure 1. Characterization of rh-GCase modified by MeO-PEG-NHS (Mw 5000 Da) with different molar ratios of reagent to the enzyme. (A) SDS-PAGE analysis of the pegylated rh-GCases indicated the acceptable effectiveness of the modification reaction, but reacting rh-GCase with longer MeO-PEG-NHS reagents resulted the incomplete pegylation (data not shown). (B) The […]
(also on this page, place not known: rh -GCase MeO -PEG-NHS rh -GCase MeO -PEG-NHS 40 50 60 70 0 20 40 60 80 100 Mono-PEG5k (50 eq) Mono-PEG5k (100 eq) Temperature (oC) Unfolded protein (%)) […]

Regarding `COc1ccc(C(=O)NC[C@@H]2NC[C@@H](O)[C@H](O)[C@H]2CO)c(OC)c1` [Compound 26], the half-maximal inhibitory concentration (IC50) in series [1] is 200 ± 32 nM.

For the molecule `O=C(NCC1NCC(O)C(O)C1CO)c1ccc2ccccc2c1` (stereo not shown) [S1], the IC50 in series [1] was determined as 3.7 ± 0.4 nM. The “fold greater inhibitory potency than IFG” value in series [1] (rh-GCase IC50 compared with IFG) came out at 50 fold.

Take `O=C(/C=C/c1cccc(Br)c1)NC[C@@H]1NC[C@@H](O)[C@H](O)[C@H]1CO` [Compound 16]: the entries for the “β-glucosidase activity enhancement in p.Asn370Ser cells” value in series [2] (10 nM) and in series [2] (25 nM) were 2.5 fold and “up to 2.7 fold”, respectively. For the same molecule, the “In-vitro rh-GCase stabilization ΔTm” value in series [3] came out at 14.2 °C. For the same molecule, the shift in melting temperature (ΔTm) at 100 µM in series [3] turned out to be 13.2 °C. For the same molecule, in series [1], the IC50 came to 4 ± 0.7 nM. The results for the “activity enhancement on co-administration with rh-GCase compared to rh-GCase alone” value in series [4] and in series [6] were 13 fold and 9.1 fold, respectively. For the same molecule, the “influence on cellular α-glucosidase activity” value in series [5] is “without impairing cellular α-glucosidase activity”.

`COc1ccc(Br)cc1/C=C/C(=O)NC[C@H]1NC[C@@H](O)[C@H](O)[C@H]1CO` [Compound 19]: the IC50 in series [1] came out at 7.7 ± 1.5 nM.

Turning to `O=C(NC[C@@H]1NC[C@@H](O)[C@H](O)[C@H]1CO)c1ccc2ccccc2c1` [Compound 23], the IC50 in series [1] worked out at 63.6 ± 9.5 nM.

With `COc1ccc(C(=O)NC[C@H]2NC[C@@H](O)[C@H](O)[C@H]2CO)c(OC)c1` [Compound 20], in series [1], the 50% inhibitory concentration (IC50) came to 45.6 ± 13.7 nM.

`O=C(NC[C@@H]1NC[C@@H](O)[C@H](O)[C@H]1CO)c1cccc2c1C(=O)c1ccccc1-2` [Compound 27]: the IC50 in series [1] stood at 68.3 ± 22 nM.

On to `Cc1ccc(C(=O)NC[C@@H]2NC[C@@H](O)[C@H](O)[C@H]2CO)c([N+](=O)[O-])c1` [Compound 24], for which the 50% inhibitory concentration (IC50) in series [1] worked out at 11 ± 0.7 nM.

On to `OC[C@H]1CNC[C@@H](O)[C@@H]1O` [IFG, isofagomine], for which the “β-glucosidase activity enhancement in p.Asn370Ser cells” value in series [2] (1000 nM) stood at 1.7 fold. Besides, in series [3], the ΔTm at 100 µM is 9.6 °C. Further, the “activity enhancement on co-administration with rh-GCase compared to rh-GCase alone” value is reported as 7 fold in series [4] and 6 fold in series [6].

Take `Cc1ccc(C(=O)NC[C@H]2NC[C@@H](O)[C@H](O)[C@H]2CO)c([N+](=O)[O-])c1` [Compound 18]: the IC50 in series [1] amounted to 191 ± 43 nM.

As to `COc1ccc(Br)cc1/C=C/C(=O)NC[C@@H]1NC[C@@H](O)[C@H](O)[C@H]1CO` [Compound 25], the IC50 in series [1] amounted to 26.4 ± 8 nM.

For `O=C(Cc1ccc(Br)cc1)NC[C@H]1NC[C@@H](O)[C@H](O)[C@H]1CO` [Compound 22], the IC50 in series [1] was found to be 250 ± 49 nM.

For the molecule `C/C(=C\c1ccccc1)C(=O)NC[C@@H]1NC[C@@H](O)[C@H](O)[C@H]1CO` [Compound 15], in series [2] (100 nM), the “β-glucosidase activity enhancement in p.Asn370Ser cells” value is 1.8 fold. Moreover, the ΔTm at 100 µM in series [3] was found to be 11.3 °C. In series [1], the IC50 is 30 ± 7.8 nM.

For `O=C(Cc1ccc(Br)cc1)NC[C@@H]1NC[C@@H](O)[C@H](O)[C@H]1CO` [Compound 17], the “β-glucosidase activity enhancement in p.Asn370Ser cells” value in series [2] (100 nM) amounted to 1.7 fold. Further, in series [3], the “In-vitro rh-GCase stabilization ΔTm” value was 13.2 °C and the ΔTm at 100 µM was 14.2 °C. For the same molecule, the concentration for half-maximal inhibition (IC50) in series [1] was 5.1 ± 1.1 nM.

On to `O=C(NC[C@H]1NC[C@@H](O)[C@H](O)[C@H]1CO)c1cccc2c1C(=O)c1ccccc1-2` [Compound 21], for which the IC50 in series [1] is 25.9 ± 11.1 nM.

B1: rh-GCase: recombinant human GCase used for enzyme replacement therapy (protein, UniProt P04062 40-536, looked up)
Lysosomal acid …: T1 sequence (P04062 40-536)
For B1, the Tm in series [7] came out at 49.1 ± 0.1 oC.

B2: Mono-PEG5k (50 eq): rh-GCase modified by MeO-PEG-NHS (Mw 5000 Da), 50 eq of reagent (conjugate, UniProt P04062 40-536, looked up)
Lysosomal acid …: T1 sequence (P04062 40-536)
modifications: PEG 5 kDa, 50 eq
notes: rh-GCase modified by MeO-PEG-NHS (Mw 5000 Da), 50 eq of reagent
Turning to B2, in series [7], the Tm is on record as 51.7 ± 0.3 oC.

B3: Mono-PEG5k (100 eq): rh-GCase modified by MeO-PEG-NHS (Mw 5000 Da), 100 eq of reagent (conjugate, UniProt P04062 40-536, looked up)
Lysosomal acid …: T1 sequence (P04062 40-536)
modifications: PEG 5 kDa, 100 eq
notes: rh-GCase modified by MeO-PEG-NHS (Mw 5000 Da), 100 eq of reagent
Regarding B3, in series [7], the Tm was 50.3 ± 0.4 oC.
